Assay [1] addresses T1, human MetAP2 enzyme (Homo sapiens, UniProt P50579). Briefly: MetAP2 enzyme assay, enzyme complexed with manganese ions. The conditions noted are these: MetAP2 Mn pIC50, MetAP2 enzyme complexed with manganese ions; Met-AMC substrate at Km.
Procedure: DNA encoding the full-length sequence of human MetAP2 enzyme is amplified by PCR and cloned into a pFastBac expression vector (Invitrogen). Recombinant baculovirus incorporating the MetAP2 construct is generated by transposition using the Bac-to-Bac system (Invitrogen). The expression of recombinant protein is carried out by infection of Spodoptera frugiperda Sf9 cells (Invitrogen) in 5 L Wave Bioreactors (Wave Biotech). Recombinant protein is isolated from cellular extracts by binding to an SP Hitrap Fast Flow or SP Sepharose (Sigma) column, and the protein is eluted using a NaCl gradient. Partially purified extracts of MetAP2 are further purified by an AKTA FPLC over a Superdex-200 column (GE). The purity of MetAP2 protein is determined on denaturing SDS-PAGE gel.
The results for each well are expressed as percent inhibition and calculated using the equation:
Assay [2] addresses T1, human MetAP2 enzyme. Briefly: MetAP2 enzyme assay, enzyme complexed with cobalt ions. The conditions noted are these: MetAP2 Co pIC50, MetAP2 enzyme complexed with cobalt ions; Met-AMC substrate at Km.

In general, IC50 refers to the point on the concentration scale where inhibition reaches its midpoint. Higher therefore signals a need for much substance.

T1 sequence (P50579 whole entry): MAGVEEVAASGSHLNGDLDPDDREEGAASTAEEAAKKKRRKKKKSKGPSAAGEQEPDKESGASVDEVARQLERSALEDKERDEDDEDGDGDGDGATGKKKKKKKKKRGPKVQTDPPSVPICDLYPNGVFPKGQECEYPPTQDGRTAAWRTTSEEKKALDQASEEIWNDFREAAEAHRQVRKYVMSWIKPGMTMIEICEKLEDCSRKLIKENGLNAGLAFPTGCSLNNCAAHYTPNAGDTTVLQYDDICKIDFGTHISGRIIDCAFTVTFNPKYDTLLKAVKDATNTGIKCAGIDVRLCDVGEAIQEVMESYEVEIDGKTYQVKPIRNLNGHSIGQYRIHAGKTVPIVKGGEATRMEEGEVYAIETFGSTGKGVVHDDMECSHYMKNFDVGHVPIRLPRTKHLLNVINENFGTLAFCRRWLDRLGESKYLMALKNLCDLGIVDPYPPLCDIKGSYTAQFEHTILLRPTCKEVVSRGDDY

For the compound `Cc1ccc(C(=O)N2CCC(O)C2)cc1-c1cc(C(F)(F)F)cc2[nH]ncc12` (stereo not shown) [Example 370, (3-hydroxypyrrolidin-1-yl)(4-methyl-3-(6-(trifluoromethyl)-1H-indazol-4-yl)phenyl)methanone], the IC50 against human MetAP2 enzyme [1] was 31.6 nM; on human MetAP2 enzyme [2] it was 126 nM.
The corresponding values for `Cc1ccc(C(=O)N2CCC(CO)C2)cc1-c1cc(C(F)(F)F)cc2[nH]ncc12` (stereo not shown) [Example 371, (3-(hydroxymethyl)pyrrolidin-1-yl)(4-methyl-3-(6-(trifluoromethyl)-1H-indazol-4-yl)phenyl)methanone] are 15.8 nM and 50.1 nM.
Turning to `C[C@H](O)CNC(=O)c1c[nH]c(=O)c(-c2cc(C(F)(F)F)cc3[nH]ncc23)c1` [Example 335, (S)—N-(2-hydroxypropyl)-6-oxo-5-(6-(trifluoromethyl)-1H-indazol-4-yl)-1,6-dihydropyridine-3-carboxamide], the IC50 against human MetAP2 enzyme [1] is 15.8 nM; on human MetAP2 enzyme [2], 631 nM.
In the same order, the values of `CNC(=O)c1ccc(-c2cc(C(F)(F)F)cc3[nH]ncc23)cc1` [Example 117, N-methyl-4-(6-(trifluoromethyl)-1H-indazol-4-yl)benzamide] are 3.16 nM and 15.8 nM.
Turning to `CS(=O)(=O)c1ccc(-c2cc(C(F)(F)F)cc3[nH]ncc23)cc1` [Example 347, 4-(4-(methylsulfonyl)phenyl)-6-(trifluoromethyl)-1H-indazole], the IC50 at human MetAP2 enzyme [1] is 6.31 nM; against human MetAP2 enzyme [2], 63.1 nM.
The corresponding values for `Cc1ncc(-c2cc(C(F)(F)F)cc3[nH]ncc23)n1C` [Example 146, 4-(1,2-dimethyl-1H-imidazol-5-yl)-6-(trifluoromethyl)-1H-indazole] are 100 nM and 794 nM.
In the case of `CN1C(=O)Cc2cc(-c3cc(C(F)(F)F)cc4[nH]ncc34)ccc21` [Example 234, 1-methyl-5-(6-(trifluoromethyl)-1H-indazol-4-yl)indolin-2-one], the IC50 at human MetAP2 enzyme [1] was 3.98 nM; against human MetAP2 enzyme [2] it was 20 nM.
In the same order, the values of `Cc1noc(C)c1-c1cc(C(F)(F)F)cc2[nH]ncc12` [Example 80, 3,5-dimethyl-4-(6-(trifluoromethyl)-1H-indazol-4-yl)isoxazole] are 7.94 nM and 79.4 nM.
The corresponding values for `O=C1CNc2ncc(-c3cc(C(F)(F)F)cc4[nH]ncc34)cc2N1` [Example 244, 7-(6-(trifluoromethyl)-1H-indazol-4-yl)-3,4-dihydropyrido[2,3-b]pyrazin-2(1H)-one] are 5.01 nM and 31.6 nM.
As to `Cc1nc(C#N)ccc1-c1cc(C(F)(F)F)cc2[nH]ncc12` [Example 377, 6-methyl-5-(6-(trifluoromethyl)-1H-indazol-4-yl)picolinonitrile], the IC50 against human MetAP2 enzyme [1] was 5.01 nM; at human MetAP2 enzyme [2] it was 50.1 nM.
Take `Cn1cc(C(=O)NCC(O)CO)cc(-c2cc(C(F)(F)F)cc3[nH]ncc23)c1=O` (stereo not shown) [Example 356, N-(2,3-dihydroxypropyl)-1-methyl-6-oxo-5-(6-(trifluoromethyl)-1H-indazol-4-yl)-1,6-dihydropyridine-3-carboxamide]: the IC50 against human MetAP2 enzyme [1] is 6.31 nM; on human MetAP2 enzyme [2] it was 316 nM.
`COc1cccnc1-c1cc(C(F)(F)F)cc2[nH]ncc12` [Example 213, 4-(3-methoxypyridin-2-yl)-6-(trifluoromethyl)-1H-indazole]: the IC50 against human MetAP2 enzyme [1] is 79.4 nM; at human MetAP2 enzyme [2], 631 nM.
In the same order, the values of `NS(=O)(=O)c1cc(F)c(-c2cc(C(F)(F)F)cc3[nH]ncc23)cc1F` [Example 376, 2,5-difluoro-4-(6-(trifluoromethyl)-1H-indazol-4-yl)benzenesulfonamide] are 5.01 nM and 50.1 nM.
The corresponding values for `Cc1c(C(=O)N2CCN(C)CC2)cc(-c2cc(C(F)(F)F)cc3[nH]ncc23)c(=O)n1C` [Example 401, 1,6-dimethyl-5-(4-methylpiperazine-1-carbonyl)-3-(6-(trifluoromethyl)-1H-indazol-4-yl)pyridin-2(1H)-one] are 6.31 nM and 200 nM.
In the same order, the values of `CC(C)(C)C(=O)Nc1ncccc1-c1cc(C(F)(F)F)cc2[nH]ncc12` [Example 73, N-(3-(6-(trifluoromethyl)-1H-indazol-4-yl)pyridin-2-yl)pivalamide] are 79.4 nM and 200 nM.
Consider `Cn1cc(C(=O)NCC(F)F)cc(-c2cc(C(F)(F)F)cc3[nH]ncc23)c1=O` [Example 355, N-(2,2-difluoroethyl)-1-methyl-6-oxo-5-(6-(trifluoromethyl)-1H-indazol-4-yl)-1,6-dihydropyridine-3-carboxamide], for which the IC50 is 5.01 nM at human MetAP2 enzyme [1] and 316 nM against human MetAP2 enzyme [2].
Consider `CN(C)c1ncc(-c2cc(C(F)(F)F)cc3[nH]ncc23)cn1` [Example 247, N,N-dimethyl-5-(6-(trifluoromethyl)-1H-indazol-4-yl)pyrimidin-2-amine], for which the IC50 was 3.98 nM against human MetAP2 enzyme [1] and 50.1 nM against human MetAP2 enzyme [2].
The corresponding values for `O=C(O)Cn1cc(-c2cc(C(F)(F)F)cc3[nH]ncc23)cn1` [Example 261, 2-(4-(6-(trifluoromethyl)-1H-indazol-4-yl)-1H-pyrazol-1-yl)acetic acid] are 39.8 nM and 1000 nM.
Turning to `Cc1nn(CCN)c(C)c1-c1cc(C(F)(F)F)cc2[nH]ncc12` [Example 176, 2-(3,5-dimethyl-4-(6-(trifluoromethyl)-1H-indazol-4-yl)-1H-pyrazol-1-yl)ethanamine], the IC50 against human MetAP2 enzyme [1] is 12.6 nM; on human MetAP2 enzyme [2], 39.8 nM.
Take `Cc1nc(N2CCCC2)ccc1-c1cc(C(F)(F)F)cc2[nH]ncc12` [Example 384, 4-(2-methyl-6-(pyrrolidin-1-yl)pyridin-3-yl)-6-(trifluoromethyl)-1H-indazole]: the IC50 against human MetAP2 enzyme [1] was 15.8 nM; at human MetAP2 enzyme [2], 79.4 nM.
The corresponding values for `O=C(NCC(F)F)c1c[nH]c(=O)c(-c2cc(C(F)(F)F)cc3[nH]ncc23)c1` [Example 338, N-(2,2-difluoroethyl)-6-oxo-5-(6-(trifluoromethyl)-1H-indazol-4-yl)-1,6-dihydropyridine-3-carboxamide] are 10 nM and 398 nM.
In the case of `Cn1cc(C(=O)NC2CC2)cc(-c2cc(C(F)(F)F)cc3[nH]ncc23)c1=O` [Example 357, N-cyclopropyl-1-methyl-6-oxo-5-(6-(trifluoromethyl)-1H-indazol-4-yl)-1,6-dihydropyridine-3-carboxamide], the IC50 against human MetAP2 enzyme [1] was 7.94 nM; against human MetAP2 enzyme [2], 200 nM.
As for `FC(F)(F)c1cc(-c2cccc3ncccc23)c2cn[nH]c2c1` [Example 101, 5-(6-(trifluoromethyl)-1H-indazol-4-yl)quinoline], the IC50 at human MetAP2 enzyme [1] is 10 nM; at human MetAP2 enzyme [2], 31.6 nM.
In the same order, the values of `CN(C)C(=O)c1cc(F)cc(-c2cc(C(F)(F)F)cc3[nH]ncc23)c1` [Example 115, 3-fluoro-N,N-dimethyl-5-(6-(trifluoromethyl)-1H-indazol-4-yl)benzamide] are 10 nM and 158 nM.
For the compound `N#Cc1cnc2c(-c3cc(C(F)(F)F)cc4[nH]ncc34)cnn2c1N` [Example 159, 7-amino-3-(6-(trifluoromethyl)-1H-indazol-4-yl)pyrazolo[1,5-a]pyrimidine-6-carbonitrile], the figures for the IC50 against human MetAP2 enzyme [1] and at human MetAP2 enzyme [2] were 158 nM and 1580 nM, respectively.
In the same order, the values of `CC(=O)Nc1cc(C)c(-c2cc(C(F)(F)F)cc3[nH]ncc23)cn1` [Example 179, N-(4-methyl-5-(6-(trifluoromethyl)-1H-indazol-4-yl)pyridin-2-yl)acetamide] are 10 nM and 25.1 nM.
In the same order, the values of `Cc1nccc(N)c1-c1cc(C(F)(F)F)cc2[nH]ncc12` [Example 252, 2-methyl-3-(6-(trifluoromethyl)-1H-indazol-4-yl)pyridin-4-amine] are 100 nM and 1580 nM.
Take `COC(=O)c1c[nH]c(=O)c(-c2cc(C(F)(F)F)cc3[nH]ncc23)c1` [Example 265, methyl 6-oxo-5-(6-(trifluoromethyl)-1H-indazol-4-yl)-1,6-dihydropyridine-3-carboxylate]: the IC50 against human MetAP2 enzyme [1] is 10 nM; against human MetAP2 enzyme [2], 100 nM.
The corresponding values for `CN1CCN(C(=O)c2c[nH]c(=O)c(-c3cc(C(F)(F)F)cc4[nH]ncc34)c2)CC1` [Example 297, 5-(4-methylpiperazine-1-carbonyl)-3-(6-(trifluoromethyl)-1H-indazol-4-yl)pyridin-2(1H)-one] are 6.31 nM and 158 nM.
The corresponding values for `COc1ncc(-c2cc(C(F)(F)F)cc3[nH]ncc23)cn1` [Example 246, 4-(2-methoxypyrimidin-5-yl)-6-(trifluoromethyl)-1H-indazole] are 3.16 nM and 100 nM.
As to `COCc1ccc(-c2cc(C(F)(F)F)cc3[nH]ncc23)cc1` [Example 48, 4-(4-(methoxymethyl)phenyl)-6-(trifluoromethyl)-1H-indazole], the IC50 at human MetAP2 enzyme [1] was 5.01 nM; against human MetAP2 enzyme [2], 50.1 nM.
The corresponding values for `FC(F)(F)c1cc(-c2c[nH]c3nccnc23)c2cn[nH]c2c1` [Example 157, 7-(6-(trifluoromethyl)-1H-indazol-4-yl)-5H-pyrrolo[2,3-b]pyrazine] are 12.6 nM and 251 nM.
With `OCc1cncc(-c2cc(C(F)(F)F)cc3[nH]ncc23)c1` [Example 29, (5-(6-(trifluoromethyl)-1H-indazol-4-yl)pyridin-3-yl)methanol], the IC50 is 6.31 nM against human MetAP2 enzyme [1] and 79.4 nM against human MetAP2 enzyme [2].
For `FC(F)(F)c1cc(-c2cccc(-c3cc[nH]n3)c2)c2cn[nH]c2c1` [Example 61, 4-(3-(1H-pyrazol-3-yl)phenyl)-6-(trifluoromethyl)-1H-indazole], the IC50 against human MetAP2 enzyme [1] was 39.8 nM; on human MetAP2 enzyme [2], 158 nM.
`NS(=O)(=O)c1cccc(-c2cc(C(F)(F)F)cc3[nH]ncc23)c1` [Example 329, 3-(6-(trifluoromethyl)-1H-indazol-4-yl)benzenesulfonamide]: the values for the IC50 on human MetAP2 enzyme [1] and against human MetAP2 enzyme [2] were 15.8 nM and 39.8 nM, respectively.
